{"source": "paper PMC6030077", "about": "“Dual role of HDAC10 in lysosomal exocytosis and DNA repair promotes neuroblastoma chemoresistance” (Scientific Reports, 2018)", "key": {"BE(2)-C cells [1]": {"system": "BE(2)-C cells", "assay": "Flow cytometric quantification of intracellular doxorubicin accumulation, BE(2)-C", "format": "cell-based, human", "experimental": "(§1) For flow cytometric quantification of intracellular doxorubicin after HDAC6/10 inhibition, BE(2)-C, SK-N-AS, IMR-32, HAP1 wild type and HDAC10 knockout cells were seeded in 6-well dishes at a density of 1.5 ∗ 10^5 cells/well (BE(2)-C and SK-N-AS, HAP1) and 3 ∗ 10^5 cells/well (IMR-32). Cells were treated with 25 ng/ml, 50 ng/ml, 100 ng/ml or 1 µg/ml doxorubicin, respectively, for 3–48 h (see respective figure legend). Where indicated, cells were co-treated with HDAC6/10 or lysosomal inhibitors. In case of co-treatment with vacuolin-1, vacuolin-1 was directly added to cells under doxorubicin treatment 1 h or 24 h prior to analysis. Flow cytometric quantification of intracellular doxorubicin after HDAC6, HDAC10 or P-glycoprotein knockdown in BE(2)-C cells was performed 5 days (P-glycoprotein) or 6 days (HDAC6/10) after transfection with siRNA. To that end, cells were seeded 3–4 days after transfection into 6-well dishes at 1.5 ∗ 10^5 cells per well and treated with 100 ng/ml doxorubicin +/− HDAC6/10 and lysosomal inhibitors for the last 24 h. After doxorubicin treatment, BE(2)-C, SK-N-AS, IMR-32 and HAP1 cells were washed with ice-cold RPMI w/o phenol-red and detached using Trypsin/EDTA for 3 minutes at 37 °C. Cells were centrifuged, resuspended in RPMI w/o phenol red and doxorubicin fluorescence was quantified on a BD FACSCanto II platform using the PE filter setting."}, "IMR-32 cells": {"system": "IMR-32 cells", "assay": "Flow cytometric quantification of intracellular doxorubicin accumulation, IMR-32", "format": "cell-based, human", "details": "50 ng/ml doxorubicin +/− 7.5 µM tubastatin A, 18 h", "experimental": "as §1"}, "BE(2)-C cells [2]": {"system": "BE(2)-C cells", "assay": "Flow cytometric analysis of cell surface LAMP-1 (lysosomal exocytosis)", "format": "cell-based, human", "details": "6 h tubastatin A 7.5 µM, bufexamac 30 µM, tubacin 7.5 µM, vacuolin-1 10 µM 1 h", "experimental": "(§2) Cells were dissociated from dishes using non-enzymatic cell dissociation reagent for five minutes. Cells were counted using a ViCell XR automatic cell counter (Beckmann Coulter) and 2.5 ∗ 10^5 cells were transferred into a pre-cooled 96-well round bottom plate (TPP92097). Cells were stained for 1.5–2 hours on ice with primary anti P-gp (Biozol ABA-AB00143-1.1), LAMP-1 (H4A3, DHSB) antibody or isotype control (DLN-05794, Dianova, Barcelona, Spain) and for 1 hour with APC-labeled secondary antibody (Dianova 115-136-068). Cells were washed three times in FACS buffer (5% FBS in PBS) after each antibody incubation step. For evaluation of DNA double-strand breaks, cells were detached from dishes using trypsin, counted using a ViCell XR automatic cell counter (Beckmann Coulter) and transferred into a pre-cooled 96-well round bottom plate (4 ∗ 10^6 cells/well). Cells were fixed and permeabilized using the eBioscience^TM Foxp3/Transcription Factor Staining Buffer Set (Thermo Fisher Scientific). Cells were stained for 1.5 h with Phospho-Histone H2A.X (S139) primary antibody (CST #9718) and for 1 h in Alexa-488-labeled secondary antibody (ThermoFisher A-11008). Cells were washed three times in 1× permeabilization buffer after each antibody incubation step and fluorescence was quantified on a BD FACSCanto II platform."}, "BE(2)-C cells [3]": {"system": "BE(2)-C cells", "assay": "Pulse-chase analysis of doxorubicin secretion/retention", "format": "cell-based, human", "details": "12 h pre-treatment, 1 µg/ml doxorubicin 3 h, washout, relative to t0", "experimental": "To test whether HDAC10 inhibition prolonged the retention of doxorubicin, we used a pulse-chase approach in which BE(2)-C cells were pre-treated over night with HDAC6/10 inhibitors and then loaded with high concentrations of doxorubicin for 3 h (1 µg/ml). After doxorubicin washout, HDAC6/10 or HDAC6 inhibitors were re-added (t0), and intracellular doxorubicin fluorescence was measured at t0, as well as 3 h (t3h) and 6 h (t6h) after doxorubicin removal (Fig. 5h–k). […] In summary, secretion of doxorubicin was slowed down in case of HDAC6/10 inhibition but not by specific HDAC6 inhibition alone.\nas §1"}, "BE(2)-C cells [4]": {"system": "BE(2)-C cells", "assay": "Cell viability, automated trypan blue exclusion, BE(2)-C", "format": "cell-based, human", "experimental": "(§3) Adherent cell lines were trypsinized and cells were pooled with corresponding supernatant, centrifuged and resuspended in 1.5 ml cell culture media. Cell viability was measured by automated trypan blue staining with the Vi-Cell XR Cell Viability Analyzer from Beckman Coulter (Krefeld, Germany)."}, "[5]": {"system": "proliferating human fibroblasts", "assay": "Cell viability, automated trypan blue exclusion, fibroblasts", "format": "cell-based", "details": "7.5 µM tubastatin A", "experimental": "as §3"}, "BE(2)-C cells [6]": {"system": "BE(2)-C cells", "assay": "Flow cytometric analysis of γH2A.X staining (DNA double-strand breaks)", "format": "cell-based, human", "details": "24 h, tubastatin A 7.5 µM, vacuolin-1 10 µM", "experimental": "as §2, with “Cells were stained for 1.5–2 hours on ice with primary anti P-gp (Biozol ABA-AB00143-1.1), LAMP-1 (H4A3, DHSB) antibody or isotype control (DLN-05794, Dianova, Barcelona, Spain) and for 1 hour with APC-labeled secondary antibody (Dianova 115-136-068).” left out, “Cells were stained for 1.5 h with Phospho-Histone H2A.X (S139) primary antibody (CST #9718) and for 1 h in Alexa-488-labeled secondary antibody (ThermoFisher A-11008).” left out"}}, "data": [{"smiles": "CN1CCc2c(c3ccccc3n2Cc2ccc(C(=O)NO)cc2)C1", "note": "[tubastatin A]", "values": [{"measurement": "intracellular doxorubicin after co-treatment", "setting": "BE(2)-C cells [1]; 100 ng/ml doxorubicin, 48 h, bufexamac 30 µM, tubastatin A 7.5 µM, tubacin 7.5 µM", "result": "increased intracellular doxorubicin"}, {"measurement": "intracellular doxorubicin levels, short-term", "setting": "BE(2)-C cells [1]; 12 h pre-treatment with inhibitor, then 1 µg/ml doxorubicin for 3 h", "result": "increased intracellular doxorubicin levels"}, {"measurement": "doxorubicin accumulation, IMR-32", "setting": "IMR-32 cells", "result": "increased accumulation of doxorubicin"}, {"measurement": "cell surface LAMP-1 levels", "setting": "BE(2)-C cells [2]", "result": "reduced surface LAMP-1 levels"}, {"measurement": "retention of intracellular doxorubicin 3 h and 6 h after doxorubicin removal", "setting": "BE(2)-C cells [3]", "result": "retained higher levels of intracellular doxorubicin"}, {"measurement": "viability of BE(2)-C cells, single treatment", "setting": "BE(2)-C cells [4]; 100 ng/ml doxorubicin, 7.5 µM tubastatin A or vacuolin-1 alone", "result": "did not substantially reduce cell viability"}, {"measurement": "viability of BE(2)-C cells, combination with 100 ng/ml doxorubicin, 24 h or 48 h", "setting": "BE(2)-C cells [4]; 7.5 µM tubastatin A", "result": "strongly reduced viability"}, {"measurement": "cell death in proliferating fibroblasts, combination with 100 ng/ml doxorubicin, 24 h or 48 h", "setting": "[5]", "result": "did not induce significant cell death"}, {"measurement": "DSBs (γH2A.X), co-treatment with doxorubicin compared to doxorubicin alone", "setting": "BE(2)-C cells [6]; 100 ng/ml doxorubicin", "result": "significantly increased the amount of DSBs"}, {"measurement": "DSBs (γH2A.X), treatment alone in the absence of doxorubicin", "setting": "BE(2)-C cells [6]; verapamil 10 µM", "result": "increase DSBs"}]}]}
